Measurements as given in article PMC1084349 (BMC Neuroscience, 2005).
Where a SMILES comes first, the peptide text is derived from it.

Experiments:
rTas1r2-hTAS1R3 = target: T1, rTas1r2-hTAS1R3 (UniProt Q7RTX0+Q9Z0R7); assay: Calcium mobilization (FLIPR), interspecies combination; conditions: asp 15 mM; cyc 30 mM; neo 0.1 mM; sac 10 mM; suc 100 mM; stev 1 mM; markedly reduced amplitudes
T1 sequence (Q9Z0R7 20-843): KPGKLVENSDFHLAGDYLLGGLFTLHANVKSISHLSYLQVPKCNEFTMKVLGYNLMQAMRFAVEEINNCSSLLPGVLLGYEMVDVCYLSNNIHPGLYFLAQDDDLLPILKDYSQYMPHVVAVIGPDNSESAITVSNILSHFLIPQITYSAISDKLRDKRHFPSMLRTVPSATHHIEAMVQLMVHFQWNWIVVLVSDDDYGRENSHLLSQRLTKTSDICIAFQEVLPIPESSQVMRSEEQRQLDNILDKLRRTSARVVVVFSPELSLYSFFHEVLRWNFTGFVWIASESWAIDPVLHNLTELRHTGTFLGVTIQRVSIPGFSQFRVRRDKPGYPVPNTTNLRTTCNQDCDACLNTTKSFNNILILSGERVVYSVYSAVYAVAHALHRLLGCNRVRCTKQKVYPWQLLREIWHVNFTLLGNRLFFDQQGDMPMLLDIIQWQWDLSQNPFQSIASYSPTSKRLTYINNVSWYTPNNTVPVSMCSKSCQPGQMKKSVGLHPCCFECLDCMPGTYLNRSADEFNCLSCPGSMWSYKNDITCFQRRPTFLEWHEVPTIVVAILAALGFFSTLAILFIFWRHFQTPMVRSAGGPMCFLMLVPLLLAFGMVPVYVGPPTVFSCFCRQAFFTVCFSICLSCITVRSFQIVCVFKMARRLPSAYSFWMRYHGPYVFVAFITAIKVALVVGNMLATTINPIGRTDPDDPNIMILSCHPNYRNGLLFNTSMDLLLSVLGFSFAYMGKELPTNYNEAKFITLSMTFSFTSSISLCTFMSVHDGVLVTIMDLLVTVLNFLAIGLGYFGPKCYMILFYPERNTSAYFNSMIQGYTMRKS
T1 sequence (Q7RTX0 21-852): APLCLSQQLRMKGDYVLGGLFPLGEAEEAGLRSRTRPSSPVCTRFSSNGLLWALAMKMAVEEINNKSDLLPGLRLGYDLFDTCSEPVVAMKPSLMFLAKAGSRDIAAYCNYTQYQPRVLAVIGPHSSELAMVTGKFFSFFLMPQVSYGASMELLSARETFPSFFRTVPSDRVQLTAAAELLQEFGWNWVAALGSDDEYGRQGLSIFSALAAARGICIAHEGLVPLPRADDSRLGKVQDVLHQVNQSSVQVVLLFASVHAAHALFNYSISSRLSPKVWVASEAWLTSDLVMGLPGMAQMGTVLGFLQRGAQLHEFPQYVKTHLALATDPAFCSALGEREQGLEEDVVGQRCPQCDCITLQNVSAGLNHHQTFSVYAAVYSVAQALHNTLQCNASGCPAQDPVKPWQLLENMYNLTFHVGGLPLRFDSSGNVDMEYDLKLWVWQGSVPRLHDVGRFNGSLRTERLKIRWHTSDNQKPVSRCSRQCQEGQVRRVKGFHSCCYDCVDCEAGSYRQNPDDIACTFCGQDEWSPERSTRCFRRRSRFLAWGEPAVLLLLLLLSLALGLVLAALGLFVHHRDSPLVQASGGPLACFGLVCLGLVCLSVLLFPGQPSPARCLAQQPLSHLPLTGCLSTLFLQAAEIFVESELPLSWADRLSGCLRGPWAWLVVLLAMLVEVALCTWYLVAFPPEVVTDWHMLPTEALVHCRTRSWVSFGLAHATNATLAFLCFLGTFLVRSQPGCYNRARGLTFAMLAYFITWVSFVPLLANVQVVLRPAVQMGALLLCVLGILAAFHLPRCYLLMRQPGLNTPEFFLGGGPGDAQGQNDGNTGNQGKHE

[1] = system: hTAS1R2 and tas1r3-hN-rTM; assay: Calcium mobilization (FLIPR), chimera with human N-terminus and rat transmembrane region; assay type: cell-based; conditions: asp 15 mM; cyc 30 mM; neo 0.1 mM; sac 10 mM; suc 100 mM; stev 1 mM
Description: The receptor chimeras of Tas1r3 were constructed using recombinant PCR. In the first reactions the N-terminal and the C-terminal part containing the seven transmembrane domains of hTAS1R3 and rTas1r3 were amplified from plasmid DNA using Ultra Pfu Polymerase (Stratagene). For the hTAS1R3 and rTas1r3 N-termini the forward vector-anchored primer (CMV: […]) and a reverse gene specific primer ([…]) were used. The hTAS1R3 and rTas1r3 C-terminal part were amplified with forward gene specific primer ([…]) and a reverse vector-anchored primer ([…]). PCR conditions were: 5 min, 94°C, 24 cycles 1 min 94°C, 0.5 min 64°C, 2 min 72°C; 5 min 72°C. The amplicons were purified using the Highpure PCR Product Purification Kit (Roche) and used as template for the second PCR. To create the chimeric receptor tas1r3-hN-rTM, equimolar amounts (~50 ng) of the hTAS1R3 N-terminus and rTas1r3 transmembrane domains were combined without additional oligonucleotides. PCR conditions were: 5 min 94°C; 15 cycles of 2 min 64°C, 2 min 72°C and 0.5 min 94°C; followed by 5 min 64°C and 10 min 72°C. […] These chimeras were cloned into pcDNA5/FRT.
The cDNAs were transiently transfected into HEK293T cells stably expressing the chimeric G-protein subunit Gα16gust44 [20] using Lipofectamine 2000 (Invitrogen) according to the manufacturer's protocol. 3–4 hours after transfection, DMEM was replaced by low-glucose DMEM supplemented with GlutaMAX and 10% dialyzed FBS (Invitrogen). 22–44 hours later, cells were loaded for 1 hour with the calcium sensitive dye Fluo4-AM (2 μg/ml in DMEM, Molecular Probes). Cells were washed 3x in solution C1 (130 mM NaCl, 5 mM KCl, 10 mM Hepes, 2 mM CaCl2, and 5 mM Glucose, pH 7,4). Calcium mobilization was monitored by an automated fluorometric imaging plate reader (FLIPR, Molecular Devices). Ligands (Sigma-Aldrich, Merck) were dissolved in C1 solution. All data were collected from at least two independent experiments carried out in triplicate. The obtained calcium signals were corrected for the response of mock transfected cells and normalized to the fluorescence of cells prior to the stimulus using ΔF/F=(F-F0)/F0. […]
All sweeteners were used at concentrations which were close to the maximal obtainable signal. (c) Alignment of amino acid sequences of the human, rat, and mouse Tas1r3 transmembrane regions. Color code: white, identical; grey, conservative; dark-grey, similar; black, non-similar. TM, predicted transmembrane domain, indicated by a black bar. Dots indicate the location of the primer used to generate the chimeric rat-human Tas1r3 receptors. Asterisks denote amino acid positions that are identical in rat and mouse but variable between humans and rodents and are located in the extracellular loops or the upper part of the transmembran regions. Boxes indicate the several rTas1r3 mutants m1 – m7, including the amino acid substitutions. m6/1 – m6/3 signified the reconverted amino acid of mutant m6.

| Structure (SMILES) | activation of receptor (calcium response) (rTas1r2-hTAS1R3) | activation of receptor (calcium response) [1] |
| --- | --- | --- |
| C=C1C[C@@]23CC[C@H]4[C@@](C)(CCC[C@@]4(C)C(=O)O[C@@H]4O[C@H](CO)[C@@H](O)[C@H](O)[C@H]4O)[C@@H]2CC[C@]1(O[C@@H]1O[C@H](CO)[C@@H](O)[C@H](O)[C@H]1O[C@@H]1O[C@H](CO)[C@@H](O)[C@H](O)[C@H]1O)C3 [stevioside] | failed to activate | responded |
| O=S(=O)(O)NC1CCCCC1 [cyclamate] | clearly responded | not |
| COc1ccc(CCC(=O)c2c(O)cc(O[C@@H]3O[C@H](CO)[C@@H](O)[C@H](O)[C@H]3O[C@@H]3O[C@@H](C)[C@H](O)[C@@H](O)[C@H]3O)cc2O)cc1O [neohesperidine dihydrochalcone] | clearly responded | not |
| OC[C@H]1O[C@@](CO)(O[C@H]2O[C@H](CO)[C@@H](O)[C@H](O)[C@H]2O)[C@@H](O)[C@@H]1O [sucrose] | failed to activate | responded |
| COC(=O)[C@H](Cc1ccccc1)NC(=O)[C@@H](N)CC(=O)O [aspartame] (HELM PEPTIDE1{D.F.[CO[*:1]]}$$$$V2.0) | failed to activate | responded |
